Entries after “also recorded” stand apart in the source; their conditions may differ.
Tests used:
[1] = test system: MK-801-induced deficits in the Novel Object Recognition Task; assay: MK-801-induced novel object recognition test; type: in vivo, Sprague-Dawley rats; conditions: rats; 0.1 mg/kg, 0.3 mg/kg and 1 mg/kg; MK-801 0.2 mg/kg
Method: The term “MK-801-induced novel object recognition test” herein refers to the experiment to evaluate in vivo efficacy in the schizophrenic cognitive impairment animal model. The detail method is described below. MK-801 is also known as dizocilpine.
MK-801-Induced Novel Object Recognition Test:
Testing was performed using 6-week-old male Sprague Dawley rats. On the testing day, rats were habituated at the empty box for 10 minutes individually. The disclosed compound was administered orally 1 h prior, followed by administration of MK-801 (0.2 mg/kg, s.c.) 30 min prior to the acquisition trial for 10 min. The retention trial for 10 min was performed with the intertrial interval for 80 min. The rat was allowed to explore the same objects in the acquisition trial. In the retention trial, one of the objects used in the acquisition trial was replaced with a novel one. The exploration time of licking, sniffing or touching was measured in the retention trial. Efficacy of each compound at the dose of 0.3, 1, 3 or 10 mg/kg p.o. (n=12-15) was determined by the recognition index (exploration time to the novel object/total exploration time). The scores of MK-801/vehicle and MK-801/compound-treated groups were statistically analyzed by Dunnett's test.
MK-801 induced disruptions of Novel Object Recognition
Drugs: Test compounds were formulated in 10% Tween 80/90% sterile water vehicle. […]

plasma protein [2] = assay: Rat plasma protein binding (PPB); type: in vitro ADME
Method: (§1) These assays were performed according to known methods as generally described in the following references: Conde-Ceide et al. ACS Med. Chem. Lett. 2015, 6, 716-720; Morris et al. J. Med. Chem. 2014, 57, 10192-10197; and Bubser et al. ACS Chem. Neurosci. 2014, 5, 920-942. Abbreviations which have been used in the descriptions of the following tables are; PPB is plasma protein binding; BHB is brain homogenate binding; and CLint is intrinsic clearance in hepatic microsomes.

plasma protein [3] = assay: Human plasma protein binding (PPB); type: in vitro ADME
Method: as §1

[4] = Rat brain homogenate binding (BHB); type: in vitro ADME
Method: as §1

[5] = Human hepatic microsomal intrinsic clearance; type: in vitro ADME; conditions: human hepatic microsomes
Method: as §1

CYP2C9 = CYP2C9 (Homo sapiens, UniProt P11712); assay: P450 inhibition 2C9; type: in vitro ADME
CYP2C9, sequence (P11712 whole entry): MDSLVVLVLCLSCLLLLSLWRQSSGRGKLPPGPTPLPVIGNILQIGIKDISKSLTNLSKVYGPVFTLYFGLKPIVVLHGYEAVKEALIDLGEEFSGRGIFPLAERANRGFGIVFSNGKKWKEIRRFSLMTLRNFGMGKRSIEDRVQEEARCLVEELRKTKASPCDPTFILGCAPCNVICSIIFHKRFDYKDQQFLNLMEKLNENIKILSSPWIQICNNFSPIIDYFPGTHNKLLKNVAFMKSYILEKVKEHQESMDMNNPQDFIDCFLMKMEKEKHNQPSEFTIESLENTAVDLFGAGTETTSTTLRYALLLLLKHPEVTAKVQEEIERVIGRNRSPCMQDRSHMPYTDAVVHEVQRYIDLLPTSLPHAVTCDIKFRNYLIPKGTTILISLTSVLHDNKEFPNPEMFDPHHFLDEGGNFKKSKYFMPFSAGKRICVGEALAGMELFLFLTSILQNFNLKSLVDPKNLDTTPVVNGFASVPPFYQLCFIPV
Method: as §1

[6] = Rat in vivo pharmacokinetics and brain distribution (i.v. cassette); conditions: iv, rat i.v. cassette injection
Method: Compound 12 was tested in several in vivo assays to investigate pharmacokinetics and brain distribution. Abbreviations which have been used in the descriptions of following tables are; CLp is plasma clearance; Vss is volume of distribution at steady state; Elim. t1/2 is half-life for elimination; Kp is tissue distribution partition coefficient; Kp,uu is unbound tissue distribution partition coefficient.

- Rat PPB (% bound) (plasma protein [2]): 98.4 % bound
- Human PPB (% bound) (plasma protein [3]): 98.8 % bound
- Rat BHB (% bound) [4]: 99.7 % bound
- CLint scaled [5]: 16 mL/min/kg
- IC50 (CYP2C9): 5.7 µM
- Kp uu ([6]; brain, unbound tissue distribution partition coefficient, read-out: Rat brain: plasma Kp, uu): 0.19
- clearance ([6]; plasma clearance, read-out: Rat CLp): 28 mL/min/kg
- half-life ([6]; plasma, half-life for elimination, read-out: Rat Elim. t1/2 (converted)): 2 h
- Vd ([6]; plasma, volume of distribution at steady state, read-out: Rat Vss): 4.7 L/kg
SMILES: CC(=O)N[C@H]1CC[C@@H](n2ncc(Cl)c2C(=O)Nc2ncc(C#Cc3ccccc3)cc2C)CC1 [Compound 12, 1-(cis-4-acetamidocyclohexyl)-4-chloro-N-(3-methyl-5-(phenylethynyl)pyridin-2-yl)-1H-pyrazole-5-carboxamide]
- reversal of MK-801-induced deficits in the Novel Object Recognition Task [1]: dose-dependently reversed; also recorded: caused reversal
